Laboratory results from patent publication US20130267516A1, “SUBSTITUTED CYCLOPENTYL-AZINES AS CASR-ACTIVE COMPOUNDS” (LEO PHARMA A/S, priority 2010, published 2013).

Test: Clearance in rat hepatocytes
Format: in vitro ADME
Settings: hepatic extraction ratio; 0.5 μM compound, 1×10^6 cells/mL, 20 min
Experimental: Test compounds and 4 control compounds are tested in duplicate per run. Test compound concentration is 0.5 μM and cell concentration is 1×10^6 cells/mL in the incubation. The described method is performed by the liquid handling system Tecan RSP and is based on a 96-well format.
The liver is collected from a male Spraque-Dawley rat. One liver lobe is cut off and flushed with various buffers to loosen the cells. The cell suspension is washed and centrifuged, and the cell density is adjusted to 1.2×10^6 cells/mL with Krebs-Henseleit buffer, pH 7.4, containing 0.2% bovine serum albumin (BSA). Only cell suspensions with viability above 80% are used.
The cell suspension is pre-heated (20 min) to 37° C. Test compound is added, and the mixture is incubated for 20 minutes. Incubations are run in duplicate. Samples are withdrawn at predetermined stop times and mixed with methanol containing internal standard (IS) to terminate all enzyme activity and precipitate proteins.
The percentage of organic solvent in the incubations is less than 1%. Careful inspections of reagents are performed prior to the start of any experiment to ensure all reagents are in solution.
The 96-well plates are centrifuged. Test compound depletion, using a compound specific LC/MS/MS method, is determined.
Data analysis is performed as described above in the section “Biological assay for analysis of clearance in human liver microsomes”, with the following modifications:
Intrinsic clearance (Clint) (mL/min/10^6 cells) is calculated from: […]
where c is the cell concentration in 10^6 cells/mL.
The following scaling factors for rat are used for eq. 4:
a: 120 (cells/liver weight (10^6 cells/g)) b: 10 (liver weight (g)) d: 0.25 (body weight (kg))
Liver blood flow in rats (for eq. 5):
Apparent clearance below approximately 25 mL/min/kg rat body weight (corresponding to an extraction ratio of approx. 33%) is considered as low clearance (high metabolic stability). Apparent intrinsic clearance above approximately 165 mL/min/kg rat body weight (corresponding to an extraction ratio of approx. 75%) is considered as high clearance (low metabolic stability).

Row | Clearance (% Eh) in rat hepatocytes | SMILES
1 | B (B: 33% ≦ Eh ≦ 75%) | C[C@@H](N[C@H]1CC[C@@H](c2ccc(NCCNCCO)nc2)C1)c1cccc2ccccc12.O=CO.O=CO.O=CO [Compound 101, 2-[2-[[5-[(1R,3S)-3-[[(1R)-1-(1-Naphthyl)ethyl]amino]cyclopentyl]-2-pyridyl]amino]ethylamino]ethanol]
2 | A (A: Eh < 33%) | COc1cc([C@@H](C)N[C@H]2CC[C@@H](c3ccc(NC4CCNCC4)nc3)C2)ccc1F [Compound 107, 5-[(1R,3S)-3-[[(1R)-1-(4-Fluoro-3-methoxy-phenyl)ethyl]amino]cyclopentyl]-N-(4-piperidyl)pyridin-2-amine]
3 | A (A: Eh < 33%) | COc1cc([C@@H](C)N[C@H]2CC[C@@H](c3ccc(N4CCNC(=O)C4)nc3)C2)ccc1F [Compound 109, 4-[5-[(1R,3S)-3-[[(1R)-1-(4-Fluoro-3-methoxy-phenyl)ethyl]amino]cyclopentyl]-2-pyridyl]piperazin-2-one]
4 | A (A: Eh < 33%) | COc1cc([C@@H](C)N[C@H]2CC[C@@H](c3ccc(NCCS(N)(=O)=O)nc3)C2)ccc1F [Compound 113, 2-[[5-[(1R,3S)-3-[[(1R)-1-(4-Fluoro-3-methoxyphenyl)ethyl]amino]cyclopentyl]-2-pyridyl]amino]ethanesulfonamide]
5 | A (A: Eh < 33%) | COc1cc([C@@H](C)N[C@H]2CC[C@@H](c3ccc(NCC(O)CO)nc3)C2)ccc1F (stereo partly drawn) [Compound 115, 3-[[5-[(1R,3S)-3-[[(1R)-1-(4-Fluoro-3-methoxyphenyl)ethyl]amino]cyclopentyl]-2-pyridyl]amino]propane-1,2-diol]
6 | A (A: Eh < 33%) | COc1cc([C@@H](C)N[C@H]2CC[C@@H](c3ccc(N4CCN(C(C)=O)CC4)nc3)C2)ccc1F [Compound 116, 1-[4-[5-[(1R,3S)-3-[[(1R)-1-(4-Fluoro-3-methoxyphenyl)ethyl]amino]cyclopentyl]-2-pyridyl]piperazin-1-yl]ethanone]
7 | B (B: 33% ≦ Eh ≦ 75%) | COc1cc([C@@H](C)N[C@H]2CC[C@@H](c3cnc(N4CCNC(=O)C4)nc3)C2)ccc1F [Compound 126, 4-[5-[(1R,3S)-3-[[(1R)-1-(4-Fluoro-3-methoxy-phenyl)ethyl]amino]cyclopentyl]pyrimidin-2-yl]piperazin-2-one]
8 | A (A: Eh < 33%) | COc1cc([C@@H](C)N[C@H]2CC[C@@H](c3cnc(N4CCN(C(C)=O)CC4)nc3)C2)ccc1F.O=CO [Compound 127, 1-[4-[5-[(1R,3S)-3-[[(1R)-1-(4-Fluoro-3-methoxy-phenyl)ethyl]amino]cyclopentyl]pyrimidin-2-yl]piperazin-1-yl]ethanone]
